This is an account of results in paper PMC8883573, “New Insights Into the Function of Flavohemoglobin in Mycobacterium tuberculosis: Role as a NADPH-Dependent Disulfide Reductase and D-Lactate-Dependent Mycothione Reductase” (Frontiers in Cellular and Infection Microbiology, 2022).

One data set deals with trxB (Mycobacterium tuberculosis, UniProt P9WHH1). The data set is described as follows: DTNB reduction, absorbance at […] nm. The settings on record: 5 mM DTNB, 250 µM NADPH, 100 mM potassium phosphate pH 7.0, 2 mM EDTA, 25 °C. It is filed as biochemical.
For data set [1], the system named is O=C(O)c1cc(SSc2ccc([N+](=O)[O-])c(C(=O)O)c2)ccc1[N+](=O)[O-]. Briefly: purified protein. To be noted: pH 7.0. The data set is classed as biochemical, Mycolicibacterium smegmatis.

trxB, sequence (P9WHH1 2-335): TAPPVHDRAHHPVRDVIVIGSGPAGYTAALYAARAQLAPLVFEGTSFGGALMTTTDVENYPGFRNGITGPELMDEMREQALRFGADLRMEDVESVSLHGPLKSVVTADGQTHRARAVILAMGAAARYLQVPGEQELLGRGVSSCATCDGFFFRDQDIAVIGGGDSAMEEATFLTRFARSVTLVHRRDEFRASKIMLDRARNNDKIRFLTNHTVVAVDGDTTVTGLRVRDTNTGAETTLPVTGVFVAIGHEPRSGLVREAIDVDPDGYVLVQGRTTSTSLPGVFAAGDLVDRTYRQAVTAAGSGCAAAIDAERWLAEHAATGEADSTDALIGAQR

As to `O=C(O)c1cc(SSc2ccc([N+](=O)[O-])c(C(=O)O)c2)ccc1[N+](=O)[O-]` [DTNB, 5,5’-dithiobis-(2-nitrobenzoic acid)], on trxB, the “DTNB reduction, absorbance at 412 nm” value is “NADPH-dependent reduction of DTNB by MtbFHb, MsFHbII, and trxB”.
Take `NC(=O)C1=CN([C@@H]2O[C@H](COP(=O)(O)OP(=O)(O)OC[C@H]3O[C@@H](n4cnc5c(N)ncnc54)[C@H](OP(=O)(O)O)[C@@H]3O)[C@@H](O)[C@H]2O)C=CC1` [NADPH]: the “DTNB reduction, absorbance at 412 nm” value on trxB (electron donor for DTNB reduction) was “NADPH-dependent reduction of DTNB by MtbFHb, MsFHbII, and trxB”.
In the case of “MsFHbII (Mycolicibacterium smegmatis MC2 155)”, the Km – broadly, the substrate concentration at which the rate is half of its maximum – in data set [1] was 93.7 ± 7.6 µM.
